# Reference: ChEMBL document CHEMBL5584362, “Sucurchalasins A and B, Sulfur-Containing Heterodimers of a Cytochalasan and a Macrolide from the Endophytic Fungus Aspergillus spelaeus GDGJ-286” (J Nat Prod, 2024)
# The source made the active and inactive calls. The rule behind the calls is not given here.
# System: A2780
# Test: Induction of apoptosis in human A2780 cells assessed as viable cells at 3 uM measured after 48 hrs by Annexin V-FITC/PI staining based FACS analysis (reference value: 92.6 to 92.8%)
# Assay type: functional
# Conditions: read-out: Activity
row,SMILES,viability at 3 µM
1,CC1=C[C@@H]2/C=C(\C)CC[C@@H](O)C(=O)C[C@@H](S[C@@H]3CCC[C@H](C)OC(=O)Cc4cc(O)cc(O)c4C(=O)C3)C(=O)[C@]23C(=O)N[C@@H](CC(C)C)[C@@H]3[C@@H]1C,90.9%

# System: A2780
# Test: Induction of apoptosis in human A2780 cells assessed as early apoptotic cells at 3 uM measured after 48 hrs by Annexin V-FITC/PI staining based FACS analysis (reference value: 1.68 to 1.9%)
# Assay type: functional
# Conditions: not given
row,SMILES,Activity
1,CC1=C[C@@H]2/C=C(\C)CC[C@@H](O)C(=O)C[C@@H](S[C@@H]3CCC[C@H](C)OC(=O)Cc4cc(O)cc(O)c4C(=O)C3)C(=O)[C@]23C(=O)N[C@@H](CC(C)C)[C@@H]3[C@@H]1C,4.85%

# System: A2780
# Test: Induction of apoptosis in human A2780 cells assessed as late apoptotic cells at 3 uM measured after 48 hrs by Annexin V-FITC/PI staining based FACS analysis (reference value: 2.32 to 2.4%)
# Assay type: functional
# Conditions: not given
row,SMILES,Activity
1,CC1=C[C@@H]2/C=C(\C)CC[C@@H](O)C(=O)C[C@@H](S[C@@H]3CCC[C@H](C)OC(=O)Cc4cc(O)cc(O)c4C(=O)C3)C(=O)[C@]23C(=O)N[C@@H](CC(C)C)[C@@H]3[C@@H]1C,2.87%

# System: A2780
# Test: Induction of apoptosis in human A2780 cells assessed as necrotic cells at 3 uM measured after 48 hrs by Annexin V-FITC/PI staining based FACS analysis (reference value: 1.34 to 3.3%)
# Assay type: functional
# Conditions: not given
row,SMILES,Activity
1,CC1=C[C@@H]2/C=C(\C)CC[C@@H](O)C(=O)C[C@@H](S[C@@H]3CCC[C@H](C)OC(=O)Cc4cc(O)cc(O)c4C(=O)C3)C(=O)[C@]23C(=O)N[C@@H](CC(C)C)[C@@H]3[C@@H]1C,1.38%

# System: A2780
# Test: Induction of apoptosis in human A2780 cells assessed as viable cells at 9 uM measured after 48 hrs by Annexin V-FITC/PI staining based FACS analysis (reference value: 92.6 to 92.8%)
# Assay type: functional
# Conditions: read-out: Activity
row,SMILES,viability at 9 µM
1,CC1=C[C@@H]2/C=C(\C)CC[C@@H](O)C(=O)C[C@@H](S[C@@H]3CCC[C@H](C)OC(=O)Cc4cc(O)cc(O)c4C(=O)C3)C(=O)[C@]23C(=O)N[C@@H](CC(C)C)[C@@H]3[C@@H]1C,27.1%

# System: A2780
# Test: Induction of apoptosis in human A2780 cells assessed as early apoptotic cells at 9 uM measured after 48 hrs by Annexin V-FITC/PI staining based FACS analysis (reference value: 1.68 to 1.9%)
# Assay type: functional
# Conditions: not given
row,SMILES,Activity
1,CC1=C[C@@H]2/C=C(\C)CC[C@@H](O)C(=O)C[C@@H](S[C@@H]3CCC[C@H](C)OC(=O)Cc4cc(O)cc(O)c4C(=O)C3)C(=O)[C@]23C(=O)N[C@@H](CC(C)C)[C@@H]3[C@@H]1C,56.8%

# System: A2780
# Test: Induction of apoptosis in human A2780 cells assessed as late apoptotic cells at 9 uM measured after 48 hrs by Annexin V-FITC/PI staining based FACS analysis (reference value: 2.32 to 2.4%)
# Assay type: functional
# Conditions: not given
row,SMILES,Activity
1,CC1=C[C@@H]2/C=C(\C)CC[C@@H](O)C(=O)C[C@@H](S[C@@H]3CCC[C@H](C)OC(=O)Cc4cc(O)cc(O)c4C(=O)C3)C(=O)[C@]23C(=O)N[C@@H](CC(C)C)[C@@H]3[C@@H]1C,14.9%

# System: A2780
# Test: Induction of apoptosis in human A2780 cells assessed as necrotic cells at 9 uM measured after 48 hrs by Annexin V-FITC/PI staining based FACS analysis (reference value: 1.34 to 3.3%)
# Assay type: functional
# Conditions: not given
row,SMILES,Activity
1,CC1=C[C@@H]2/C=C(\C)CC[C@@H](O)C(=O)C[C@@H](S[C@@H]3CCC[C@H](C)OC(=O)Cc4cc(O)cc(O)c4C(=O)C3)C(=O)[C@]23C(=O)N[C@@H](CC(C)C)[C@@H]3[C@@H]1C,1.19%

# System: Shigella dysenteriae
# Test: Antibacterial activity against Shigella dysenteriae measured after 20 to 45 mins by broth microdilution method
# Assay type: functional
# Conditions: time 20-45 min
row,SMILES,MIC
1,CC1=C[C@@H]2/C=C(\C)CC[C@@H](O)C(=O)C[C@@H](S[C@@H]3CCC[C@H](C)OC(=O)Cc4cc(O)cc(O)c4C(=O)C3)C(=O)[C@]23C(=O)N[C@@H](CC(C)C)[C@@H]3[C@@H]1C,13 µg/mL

# System: Enterococcus faecalis
# Test: Antibacterial activity against Enterococcus faecalis measured after 20 to 45 mins by broth microdilution method
# Assay type: functional
# Conditions: time 20-45 min
row,SMILES,MIC
1,CC1=C[C@@H]2/C=C(\C)CC[C@@H](O)C(=O)C[C@@H](S[C@@H]3CCC[C@H](C)OC(=O)Cc4cc(O)cc(O)c4C(=O)C3)C(=O)[C@]23C(=O)N[C@@H](CC(C)C)[C@@H]3[C@@H]1C,3.1 µg/mL

# System: Bacillus subtilis
# Test: Antibacterial activity against Bacillus subtilis measured after 20 to 45 mins by broth microdilution method
# Assay type: functional
# Conditions: time 20-45 min
row,SMILES,MIC
1,CC1=C[C@@H]2/C=C(\C)CC[C@@H](O)C(=O)C[C@@H](S[C@@H]3CCC[C@H](C)OC(=O)Cc4cc(O)cc(O)c4C(=O)C3)C(=O)[C@]23C(=O)N[C@@H](CC(C)C)[C@@H]3[C@@H]1C,6.3 µg/mL

# System: Vibrio parahaemolyticus
# Test: Antibacterial activity against Vibrio parahaemolyticus at 25 ug/ml measured after 20 to 45 mins by broth microdilution method
# Assay type: functional, organism-based
# Conditions: dose 25.0 µg/ml, time 20-45 min
row,SMILES,Activity
1,CC1=C[C@@H]2/C=C(\C)CC[C@@H](O)C(=O)C[C@@H](S[C@@H]3CCC[C@H](C)OC(=O)Cc4cc(O)cc(O)c4C(=O)C3)C(=O)[C@]23C(=O)N[C@@H](CC(C)C)[C@@H]3[C@@H]1C,inactive

# System: Staphylococcus aureus
# Test: Antibacterial activity against Staphylococcus aureus at 25 ug/ml measured after 20 to 45 mins by broth microdilution method
# Assay type: functional, organism-based
# Conditions: dose 25.0 µg/ml, time 20-45 min
row,SMILES,Activity
1,CC1=C[C@@H]2/C=C(\C)CC[C@@H](O)C(=O)C[C@@H](S[C@@H]3CCC[C@H](C)OC(=O)Cc4cc(O)cc(O)c4C(=O)C3)C(=O)[C@]23C(=O)N[C@@H](CC(C)C)[C@@H]3[C@@H]1C,inactive

# System: Escherichia coli
# Test: Antibacterial activity against Escherichia coli at 25 ug/ml measured after 20 to 45 mins by broth microdilution method
# Assay type: functional, organism-based
# Conditions: dose 25.0 µg/ml, time 20-45 min
row,SMILES,Activity
1,CC1=C[C@@H]2/C=C(\C)CC[C@@H](O)C(=O)C[C@@H](S[C@@H]3CCC[C@H](C)OC(=O)Cc4cc(O)cc(O)c4C(=O)C3)C(=O)[C@]23C(=O)N[C@@H](CC(C)C)[C@@H]3[C@@H]1C,inactive
